Where “and” joins values, the source holds several entries; their conditions need not be identical. Equal values may be shown once. Inconclusive results and toxic doses are left out.

Among the data in PubChem BioAssay AID256 (DTP/NCI, 2004) are T/C values, retold here.

The test system of this test is CD2F1 mice, L1210 leukemia ip, survival T/C. As to the kind of experiment: NCI In Vivo Anticancer Drug Screen. Data for tumor model L1210 Leukemia (intraperitoneal) in CD2F1 (CDF1) mice. To be noted: higher = longer survival. The procedure, abridged: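 Ratio T/C, where T is the treated-group value and C the vehicle-dosed control value, from mice implanted with a transplantable tumor.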

[1] abbreviates: endpoint: mean survival time, dose: 100.0 mg/kg/injection, schedule: Q04DX003 (ip), vehicle: saline with Tween-80.
The mark [2] stands for this setting: endpoint: mean survival time, dose: 100.0 mg/kg/injection, schedule: Q01DX009 (ip), vehicle: saline with Tween-80.

In the case of `CC(C)[C@]12O[C@H]1[C@@H]1O[C@]13[C@]1(O[C@H]1C[C@H]1C4=C(C(=O)OC4)[C@@H](O)C[C@@]13C)[C@@H]2O`, the T/C (endpoint: mean survival time, dose: 0.8 micrograms/kg/injection, schedule: Q01DX009 (ip), vehicle: saline + alcohol) is 94 % of control; the T/C (endpoint: mean survival time, dose: 1.6 micrograms/kg/injection, schedule: Q01DX009 (ip), vehicle: saline + alcohol) is 92 % of control; the T/C (endpoint: mean survival time, dose: 3.1 micrograms/kg/injection, schedule: Q01DX009 (ip), vehicle: saline + alcohol) is 96 % of control; the T/C (endpoint: mean survival time, dose: 6.3 micrograms/kg/injection, schedule: Q01DX009 (ip), vehicle: saline + alcohol) was 92 % of control; the T/C (endpoint: mean survival time, dose: 12.5 micrograms/kg/injection, schedule: Q01DX009 (ip), vehicle: saline + alcohol) was 89 % of control; the T/C (endpoint: mean survival time, dose: 25.0 micrograms/kg/injection, schedule: Q01DX009 (ip), vehicle: saline + alcohol) is 93 % of control. Further, the T/C is 106 % of control (endpoint: mean survival time, dose: 32.0 micrograms/kg/injection, schedule: Q01DX009 (ip), vehicle: saline + alcohol); 107 % of control (endpoint: mean survival time, dose: 50.0 micrograms/kg/injection, schedule: Q01DX009 (ip), vehicle: saline + alcohol); 121 % of control (endpoint: mean survival time, dose: 63.0 micrograms/kg/injection, schedule: Q01DX009 (ip), vehicle: saline + alcohol); 115 % of control (endpoint: mean survival time, dose: 100.0 micrograms/kg/injection, schedule: Q01DX009 (ip), vehicle: saline + alcohol); 156 % of control (endpoint: mean survival time, dose: 200.0 micrograms/kg/injection, schedule: Q01DX009 (ip), vehicle: saline + alcohol); 188 % of control (endpoint: mean survival time, dose: 250.0 micrograms/kg/injection, schedule: Q01DX009 (ip), vehicle: saline + alcohol). The T/C is 207 % of control (endpoint: mean survival time, dose: 400.0 micrograms/kg/injection, schedule: Q01DX009 (ip), vehicle: saline + alcohol); 93 % of control (endpoint: mean survival time, dose: 500.0 micrograms/kg/injection, schedule: Q01DX009 (ip), vehicle: saline + alcohol); 111 % of control (endpoint: median survival time, dose: 8.0 micrograms/kg/injection, schedule: Q03HX024 (ip), vehicle: saline + alcohol); 110 % of control (endpoint: median survival time, dose: 8.0 micrograms/kg/injection, schedule: Q03HX024 (ip), vehicle: saline); 117 % of control (endpoint: median survival time, dose: 16.0 micrograms/kg/injection, schedule: Q03HX016 (ip), vehicle: saline + alcohol); 109 % of control (endpoint: median survival time, dose: 30.0 micrograms/kg/injection, schedule: Q01DX009 (ip), vehicle: saline). Moreover, the T/C is, setting by setting: (endpoint: median survival time, dose: 30.0 micrograms/kg/injection, schedule: Q01DX009 (sc), vehicle: saline) 103 % of control; (endpoint: median survival time, dose: 31.2 micrograms/kg/injection, schedule: Q01DX009 (ip), vehicle: saline + alcohol) 101 % of control; (endpoint: median survival time, dose: 31.2 micrograms/kg/injection, schedule: Q01DX009 (sc), vehicle: saline + alcohol) 98 % of control; (endpoint: median survival time, dose: 31.2 micrograms/kg/injection, schedule: Q03HX024 (ip), vehicle: saline + alcohol) 151 % of control; (endpoint: median survival time, dose: 60.0 micrograms/kg/injection, schedule: Q01DX009 (sc), vehicle: saline) 102 % of control; (endpoint: median survival time, dose: 60.0 micrograms/kg/injection, schedule: Q03HX024 (ip), vehicle: saline) 191 % of control. Also, the T/C runs as follows: (endpoint: median survival time, dose: 62.0 micrograms/kg/injection, schedule: Q03HX008 (ip), vehicle: saline + alcohol) 123 % of control; (endpoint: median survival time, dose: 62.5 micrograms/kg/injection, schedule: Q01DX009 (ip), vehicle: saline + alcohol) 122 % of control; (endpoint: median survival time, dose: 62.5 micrograms/kg/injection, schedule: Q01DX009 (sc), vehicle: saline + alcohol) 104 % of control; (endpoint: median survival time, dose: 62.5 micrograms/kg/injection, schedule: Q03HX016 (ip), vehicle: saline + alcohol) 118 % of control; (endpoint: median survival time, dose: 62.5 micrograms/kg/injection, schedule: Q03HX024 (ip), vehicle: saline + alcohol) 166 % of control; (endpoint: median survival time, dose: 62.5 micrograms/kg/injection, schedule: Q04DX003 (ip), vehicle: saline + alcohol) 97 % of control. Moreover, the T/C reads like this: (endpoint: median survival time, dose: 125.0 micrograms/kg/injection, schedule: Q01DX009 (sc), vehicle: saline + alcohol) 104 % of control; (endpoint: median survival time, dose: 125.0 micrograms/kg/injection, schedule: Q03HX008 (ip), vehicle: saline + alcohol) 118 % of control; (endpoint: median survival time, dose: 125.0 micrograms/kg/injection, schedule: Q03HX016 (ip), vehicle: saline + alcohol) 111 % of control; (endpoint: median survival time, dose: 125.0 micrograms/kg/injection, schedule: Q03HX024 (ip), vehicle: saline + alcohol) 120 % of control; (endpoint: median survival time, dose: 125.0 micrograms/kg/injection, schedule: Q04DX003 (ip), vehicle: saline + alcohol) 101 % of control; (endpoint: median survival time, dose: 125.0 micrograms/kg/injection, schedule: Q08DX002 (ip), vehicle: saline + alcohol) 98 % of control. In addition, the T/C is 151 % of control (endpoint: median survival time, dose: 130.0 micrograms/kg/injection, schedule: Q01DX009 (ip), vehicle: saline); 109 % of control (endpoint: median survival time, dose: 130.0 micrograms/kg/injection, schedule: Q01DX009 (sc), vehicle: saline); 113 % of control (endpoint: median survival time, dose: 250.0 micrograms/kg/injection, schedule: Q01DX001 (ip), vehicle: saline + alcohol); 104 % of control (endpoint: median survival time, dose: 250.0 micrograms/kg/injection, schedule: Q01DX001 (sc), vehicle: saline + alcohol); 184 % of control (endpoint: median survival time, dose: 250.0 micrograms/kg/injection, schedule: Q01DX009 (ip), vehicle: saline + alcohol); 203 % of control (endpoint: median survival time, dose: 250.0 micrograms/kg/injection, schedule: Q01DX009 (ip), vehicle: saline). Also, the T/C was 152 % of control (endpoint: median survival time, dose: 250.0 micrograms/kg/injection, schedule: Q01DX009 (sc), vehicle: saline); 113 % of control (endpoint: median survival time, dose: 250.0 micrograms/kg/injection, schedule: Q04DX003 (ip), vehicle: saline + alcohol); 109 % of control (endpoint: median survival time, dose: 250.0 micrograms/kg/injection, schedule: Q08DX002 (ip), vehicle: saline + alcohol); 109 % of control (endpoint: median survival time, dose: 500.0 micrograms/kg/injection, schedule: Q01DX001 (ip), vehicle: saline + alcohol); 107 % of control (endpoint: median survival time, dose: 500.0 micrograms/kg/injection, schedule: Q01DX001 (sc), vehicle: saline + alcohol); 239 % of control (endpoint: median survival time, dose: 500.0 micrograms/kg/injection, schedule: Q01DX009 (ip), vehicle: saline + alcohol). Further, the T/C was 255 % of control (endpoint: median survival time, dose: 500.0 micrograms/kg/injection, schedule: Q01DX009 (ip), vehicle: saline); 193 % of control (endpoint: median survival time, dose: 500.0 micrograms/kg/injection, schedule: Q01DX009 (sc), vehicle: saline + alcohol); 87 % of control (endpoint: median survival time, dose: 500.0 micrograms/kg/injection, schedule: Q01DX009 (sc), vehicle: saline); 122 % of control (endpoint: median survival time, dose: 500.0 micrograms/kg/injection, schedule: Q04DX003 (ip), vehicle: saline + alcohol); 108 % of control (endpoint: median survival time, dose: 500.0 micrograms/kg/injection, schedule: Q08DX002 (ip), vehicle: saline + alcohol); 109 % of control (endpoint: median survival time, dose: 1000.0 micrograms/kg/injection, schedule: Q01DX001 (ip), vehicle: saline + alcohol). Also, the T/C was 115 % of control (endpoint: median survival time, dose: 1000.0 micrograms/kg/injection, schedule: Q04DX003 (ip), vehicle: saline + alcohol) and 97 % of control (endpoint: median survival time, dose: 1000.0 micrograms/kg/injection, schedule: Q08DX002 (ip), vehicle: saline + alcohol).
`CC1CC2(C)C(CC1=O)CC(C)C1C3CCC(O)C3(C)CCC12` (centres undefined): the T/C by setting is: under setting [1], 97 % of control; (endpoint: mean survival time, dose: 200.0 mg/kg/injection, schedule: Q04DX003 (ip), vehicle: saline with Tween-80) 92 % of control; (endpoint: mean survival time, dose: 400.0 mg/kg/injection, schedule: Q04DX003 (ip), vehicle: saline with Tween-80) 95 % of control.
`CNCCOc1ccc(Cl)cc1`: the T/C (endpoint: mean survival time, dose: 25.0 mg/kg/injection, schedule: Q01DX009 (ip), vehicle: saline with Tween-80) is 94 % of control; the T/C (endpoint: mean survival time, dose: 25.0 mg/kg/injection, schedule: Q04DX003 (ip), vehicle: saline with Tween-80) is 96 % of control; the T/C (endpoint: mean survival time, dose: 50.0 mg/kg/injection, schedule: Q01DX009 (ip), vehicle: saline with Tween-80) is 96 % of control; the T/C (endpoint: mean survival time, dose: 50.0 mg/kg/injection, schedule: Q04DX003 (ip), vehicle: saline with Tween-80) is 113 % of control; the T/C under setting [2] is 96 % of control; the T/C under setting [1] is 96 % of control and 97 % of control.
With `CNC(=O)/C(=C\c1ccccc1)NC(C)=O`, the T/C by setting is: under setting [2], 103 % of control; (endpoint: mean survival time, dose: 200.0 mg/kg/injection, schedule: Q01DX009 (ip), vehicle: saline with Tween-80) 98 % of control; (endpoint: mean survival time, dose: 400.0 mg/kg/injection, schedule: Q01DX009 (ip), vehicle: saline with Tween-80) 98 % of control.
For the compound `CN(C)c1ccc(/C=C/c2ccnc3ccccc23)cc1`, the T/C is, setting by setting: (endpoint: mean survival time, dose: 12.5 mg/kg/injection, schedule: Q01DX Z (ip), vehicle: saline) 103 % of control; (endpoint: mean survival time, dose: 16.0 mg/kg/injection, schedule: Q01DX008 (iv), vehicle: saline) 100 % of control; (endpoint: mean survival time, dose: 25.0 mg/kg/injection, schedule: Q01DX Z (ip), vehicle: saline) 103 % of control; (endpoint: mean survival time, dose: 32.0 mg/kg/injection, schedule: Q01DX008 (iv), vehicle: saline) 100 % of control; (endpoint: mean survival time, dose: 50.0 mg/kg/injection, schedule: Q01DX Z (ip), vehicle: saline) 103 % of control; (endpoint: mean survival time, dose: 64.0 mg/kg/injection, schedule: Q01DX008 (iv), vehicle: saline) 102 % of control.
